Data reported in patent US7763626B2, “Compositions and method for enhancing the therapeutic activity of opiods in treatment of pain” (Trustees of Dartmouth College, priority 2004, dated 2010).

Legend:
Mac-1 mRNA = test: Real-time PCR of Mac-1 mRNA at L5 lumbar spinal cord; format: in vivo, rat
Procedure: Total RNA was treated with DNase I (Ambion, Austin, Tex.) to remove DNA contamination before cDNA synthesis. The reverse transcription (RT) was carried out in a 100 μl total reaction volume containing RT buffer, dNTPs, multiscribe reverse transcriptase, RNase-free water and 10 μg of DNase-treated total RNA. The RT reaction was carried out at 25° C. for 10 minutes, 37° C. for 120 minutes, and 95° C. for 5 minutes. Real-time PCR analysis was performed using gene-specific primers and probes that were designed and blasted against GENBANK to confirm their species and gene specificity. […] The real-time PCR reactions were carried out using Platinum Taq DNA polymerase, 20 mM Tris HCl (pH 8.4), 50 mM KCl, 3 mM MgCl2, 200 μM dGTP, dCTP, and dATP, 400 μM of dUTP and 1 U uracyl DNA glycosylase (UDG), 900 nM forward and reverse primers, 300 nM TaqMan probe, and 10-fold dilution of cDNA (50 ng) from the RT step. Primers and probes for glyceraldehyde-3-phosphate (GADPH), GFAP and Mac-1 were obtained form Applied Biosystems (LaJolla, Calif.). The relative standard curves generated by plotting the threshold value versus the log of the amount of total cDNA added to the reaction (1-10000 pg) were used to compare the relative amount of target genes from control and chronic morphine-treated animals.

TNF-α protein = test: Cytokine protein estimation by ELISA at L5 spinal cord; format: in vivo, rat; conditions: propentofylline 10 micrograms intrathecally for 5 days during induction of morphine tolerance
Procedure: Quantitative determination of IL-1β, TNF-α and IL-6 protein was performed on the L5 spinal cord of the rats. […] Briefly, weighed sections of L5 spinal cord were homogenized in a homogenization buffer consisting of a protease inhibitor using the a Power Gen 125 tissue tearer (Fisher Scientific, Suwanee, Ga.). Samples were spun at 20,000×g for 30 minutes at 4° C. Supernatant was aliquoted and stored at −80° C. for future protein quantification. IL-1β and TNF-α (R&D Systems, Minneapolis, Minn.) and IL-6 (Biosource, Camarillo, Calif.) protein concentrations were determined utilizing the quantitative sandwich enzyme immunoassay.

CCCn1cnc2c1c(=O)n(CCCCC(C)=O)c(=O)n2C [propentofylline]
Mac-1 mRNA levels at the L5 lumbar spinal cord (Mac-1 mRNA; compared to saline-treated controls, morphine 10 mg/kg twice daily 5 days, or propentofylline 10 micrograms intrathecally 5 days in saline-treated rats): no effect | chronic morphine-induced upregulation of Mac-1 (Mac-1 mRNA; propentofylline during the induction phase of morphine tolerance): significantly attenuated | morphine-induced TNF-α protein levels (TNF-α protein): significantly attenuated
